Results on 23 molecules are retold here after PubChem BioAssay AID330 (DTP/NCI, 2004).

Where “and” joins values, the source holds several entries; their conditions need not be identical. Equal values may be shown once. Toxic doses and inconclusive results are not listed.

This assay relates to P388 leukemia ip, CD2F1 mice, survival T/C. Put plainly: NCI In Vivo Anticancer Drug Screen. Data for tumor model P388 Leukemia (intraperitoneal) in CD2F1 (CDF1) mice. The conditions noted are these: endpoint: median survival time, higher = longer survival. In a few lines: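 Mice carrying the transplanted tumor received test compound or vehicle. Survival was recorded in each group, and the value is the treated-group measurement divided by that of the vehicle-treated control group.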

Where [1] appears, read: dose: 25.0 mg/kg/injection, schedule: Q04DX002 (ip), vehicle: saline.
[2] abbreviates: dose: 50.0 mg/kg/injection, schedule: Q04DX002 (ip), vehicle: saline.
The mark [3] stands for this setting: dose: 100.0 mg/kg/injection, schedule: Q04DX002 (ip), vehicle: saline.
Where [4] appears, read: dose: 50.0 mg/kg/injection, schedule: Q01DX005 (ip), vehicle: saline with Tween-80.
Setting [5] is: dose: 100.0 mg/kg/injection, schedule: Q01DX005 (ip), vehicle: saline with Tween-80.
[6] abbreviates: dose: 200.0 mg/kg/injection, schedule: Q01DX005 (ip), vehicle: saline with Tween-80.
[7] abbreviates: dose: 100.0 mg/kg/injection, schedule: Q04DX003 (ip), vehicle: saline with Tween-80.
Where [8] appears, read: dose: 50.0 mg/kg/injection, schedule: Q01DX009 (ip), vehicle: saline with Tween-80.
Where [9] appears, read: dose: 100.0 mg/kg/injection, schedule: Q01DX009 (ip), vehicle: saline with Tween-80.
[10] abbreviates: dose: 200.0 mg/kg/injection, schedule: Q01DX009 (ip), vehicle: saline with Tween-80.
Where [11] appears, read: dose: 100.0 mg/kg/injection, schedule: Q01DX001 (ip), vehicle: saline with Tween-80.
The mark [12] stands for this setting: dose: 200.0 mg/kg/injection, schedule: Q01DX001 (ip), vehicle: saline with Tween-80.
Setting [13] is: dose: 400.0 mg/kg/injection, schedule: Q01DX001 (ip), vehicle: saline with Tween-80.
Where [14] appears, read: dose: 100.0 mg/kg/injection, schedule: Q04DX003 (ip), vehicle: saline.
Setting [15] is: dose: 200.0 mg/kg/injection, schedule: Q04DX003 (ip), vehicle: saline.
The mark [16] stands for this setting: dose: 50.0 mg/kg/injection, schedule: Q01DX009 (ip), vehicle: saline.
[17] abbreviates: dose: 100.0 mg/kg/injection, schedule: Q01DX009 (ip), vehicle: saline.
[18] abbreviates: dose: 200.0 mg/kg/injection, schedule: Q01DX009 (ip), vehicle: saline.

Consider `CN(C)c1ccc(C(Cl)[O][Sn]([CH3])([CH3])[Cl])cc1` (stereo not given), for which the T/C (dose: 12.5 mg/kg/injection, schedule: Q04DX002 (ip), vehicle: saline with Tween-80) was 106 % of control and 116 % of control; the T/C (dose: 12.5 mg/kg/injection, schedule: Q04DX002 (ip), vehicle: saline) is 110 % of control; the T/C (dose: 25.0 mg/kg/injection, schedule: Q04DX002 (ip), vehicle: saline with Tween-80) is 101 % of control and 106 % of control; the T/C under setting [1] was 115 % of control; the T/C (dose: 50.0 mg/kg/injection, schedule: Q04DX002 (ip), vehicle: saline with Tween-80) is 116 % of control and 120 % of control; the T/C under setting [2] was 100 % of control. The T/C under setting [3] was 98 % of control.
In the case of `ON(C=S)c1ccccc1`, the T/C reads like this: under setting [4], 102 % of control; under setting [5], 105 % of control; under setting [6], 97 % of control.
As for `O=[N+]([O-])c1cc2[nH]cnc2c([N+](=O)[O-])c1N1CCOCC1`, the T/C (dose: 25.0 mg/kg/injection, schedule: Q04DX003 (ip), vehicle: saline with Tween-80) is 100 % of control; the T/C (dose: 50.0 mg/kg/injection, schedule: Q04DX003 (ip), vehicle: saline with Tween-80) was 104 % of control; the T/C under setting [7] is 97 % of control.
As for `CN(C)c1ccc(-c2nc3ccccc3s2)c(Cl)c1`, the T/C is 102 % of control under setting [8], 103 % of control under setting [9] and 109 % of control under setting [10].
Consider `CC(C)C(=NC(C)(C)C)Nc1ccccc1Cl`, for which the T/C is 100 % of control under setting [8], 92 % of control under setting [9] and 95 % of control under setting [10].
As to `CN(CCN1C(=O)c2c(Cl)c(Cl)c(Cl)c(Cl)c2C1=O)c1ccccc1`, the T/C runs as follows: (dose: 50.0 mg/kg/injection, schedule: Q01DX001 (ip), vehicle: saline with Tween-80) 95 % of control; under setting [11], 91 % of control; under setting [12], 88 % of control.
For the molecule `O=C1CCCC(CCc2ccccc2)O1` (stereo not given), the T/C under setting [11] is 100 % of control, the T/C under setting [12] is 101 % of control and the T/C under setting [13] is 100 % of control.
In the case of `CC(=O)C(/C=N/C(N)=O)=C(/C)O`, the T/C (dose: 50.0 mg/kg/injection, schedule: Q04DX003 (ip), vehicle: saline) was 100 % of control; the T/C under setting [14] is 100 % of control; the T/C under setting [15] was 110 % of control.
On to `CSc1nn(CCC#N)c(=O)[nH]c1=O`, for which the T/C was 104 % of control (dose: 25.0 mg/kg/injection, schedule: Q01DX005 (ip), vehicle: water); 103 % of control (dose: 50.0 mg/kg/injection, schedule: Q01DX005 (ip), vehicle: water); 105 % of control (dose: 60.0 mg/kg/injection, schedule: Q01DX005 (ip), vehicle: Klucel (hydroxypropylcellulose) (HPC)); 110 % of control (dose: 100.0 mg/kg/injection, schedule: Q01DX005 (ip), vehicle: water); 100 % of control (dose: 120.0 mg/kg/injection, schedule: Q01DX005 (ip), vehicle: Klucel (hydroxypropylcellulose) (HPC)); 100 % of control (dose: 240.0 mg/kg/injection, schedule: Q01DX005 (ip), vehicle: Klucel (hydroxypropylcellulose) (HPC)).
Regarding `C=CCNC(=O)/C(C)=C(/C)c1ccccc1`, the T/C reads like this: (dose: 100.0 mg/kg/injection, schedule: Q01DX001 (ip), vehicle: Klucel (hydroxypropylcellulose) (HPC)) 100 % of control; (dose: 200.0 mg/kg/injection, schedule: Q01DX001 (ip), vehicle: Klucel (hydroxypropylcellulose) (HPC)) 104 % of control; (dose: 400.0 mg/kg/injection, schedule: Q01DX001 (ip), vehicle: Klucel (hydroxypropylcellulose) (HPC)) 99 % of control.
With `CCOC(=O)c1ccc(N=Cc2cccs2)cc1`, the T/C was 88 % of control under setting [16], 92 % of control under setting [17] and 102 % of control under setting [18].
In the case of `C[N+](C)(C)CC(=O)O`, the T/C runs as follows: (dose: 10.0 mg/kg/injection, schedule: Q01DX005 (ip), vehicle: saline) 104 % of control; (dose: 20.0 mg/kg/injection, schedule: Q01DX005 (ip), vehicle: saline) 99 % of control; (dose: 31.25 mg/kg/injection, schedule: Q01DX005 (ip), vehicle: saline) 100 % of control; (dose: 40.0 mg/kg/injection, schedule: Q01DX005 (ip), vehicle: saline) 98 % of control; (dose: 62.5 mg/kg/injection, schedule: Q01DX005 (ip), vehicle: saline) 105 % of control; (dose: 125.0 mg/kg/injection, schedule: Q01DX005 (ip), vehicle: saline) 91 % of control. Also, the T/C (dose: 250.0 mg/kg/injection, schedule: Q01DX005 (ip), vehicle: saline) was 87 % of control.
With `C1=C(c2ccccc2)N=C(c2nncc3ccccc23)C1(c1ccccc1)c1ccccc1`, the T/C reads like this: under setting [7], 101 % of control; (dose: 200.0 mg/kg/injection, schedule: Q04DX003 (ip), vehicle: saline with Tween-80) 101 % of control; (dose: 400.0 mg/kg/injection, schedule: Q04DX003 (ip), vehicle: saline with Tween-80) 96 % of control.
Take `CC(Cl)C(Cl)(Cl)/C=C\[N+](=O)[O-]` (stereo not given): the T/C is 103 % of control under setting [16], 102 % of control under setting [17] and 98 % of control under setting [18].
For `Cc1ccc(C2NC(c3ccc(C)cc3)C3CCCC2C3O)cc1` (stereo not given), the T/C was 100 % of control under setting [14]; 97 % of control under setting [15]; 95 % of control (dose: 400.0 mg/kg/injection, schedule: Q04DX003 (ip), vehicle: saline).
On to `[Cl][Eu]([Cl])[Cl]`, for which the T/C under setting [16] is 89 % of control.
For `Cc1ccc(N=Nc2c(O)n(-c3ccc(Br)cc3)c(=S)n(-c3ccccc3)c2=O)cc1`, the T/C by setting is: under setting [11], 95 % of control; under setting [12], 100 % of control; under setting [13], 90 % of control.
On to `CN(C)c1ccc(N=C2C=CC(=[N+](C)C)C=C2)cc1`, for which the T/C (dose: 3.13 mg/kg/injection, schedule: Q01DX009 (ip), vehicle: Klucel (hydroxypropylcellulose) (HPC)) is 90 % of control; the T/C (dose: 6.25 mg/kg/injection, schedule: Q01DX009 (ip), vehicle: Klucel (hydroxypropylcellulose) (HPC)) is 93 % of control; the T/C (dose: 12.5 mg/kg/injection, schedule: Q01DX009 (ip), vehicle: Klucel (hydroxypropylcellulose) (HPC)) is 101 % of control; the T/C (dose: 25.0 mg/kg/injection, schedule: Q01DX009 (ip), vehicle: Klucel (hydroxypropylcellulose) (HPC)) was 114 % of control.
Consider `O=c1c2ccccc2sc2cccc(NCCN3CCC(C4CCN(CCNc5cccc6sc7ccccc7c(=O)c56)CC4)CC3)c12`, for which the T/C reads like this: (dose: 6.25 mg/kg/injection, schedule: Q01DX005 (ip), vehicle: saline with Tween-80) 105 % of control; (dose: 12.5 mg/kg/injection, schedule: Q01DX005 (ip), vehicle: saline with Tween-80) 90 % of control; under setting [4], 96 % of control; under setting [5], 92 % of control.
On to `[N-]=[N+]=CC(=O)C1(c2ccccc2)OC1c1ccccc1` (stereo not given), for which the T/C reads like this: (dose: 25.0 mg/kg/injection, schedule: Q01DX005 (ip), vehicle: saline with Tween-80) 91 % of control; under setting [4], 86 % of control; under setting [5], 94 % of control; under setting [6], 86 % of control.
With `O=C(CCCl)OCCCl`, the T/C is, setting by setting: (dose: 50.0 mg/kg/injection, schedule: Q01DX009 (ip), vehicle: saline sonified) 95 % of control; (dose: 100.0 mg/kg/injection, schedule: Q01DX009 (ip), vehicle: saline sonified) 100 % of control; (dose: 200.0 mg/kg/injection, schedule: Q01DX009 (ip), vehicle: saline sonified) 90 % of control.
Turning to `CCOSN1CCOCC1`, the T/C under setting [1] is 101 % of control; the T/C under setting [2] was 101 % of control; the T/C under setting [3] is 100 % of control and 93 % of control.
For the molecule `CCCN(C)C(=O)N(CCCl)N=O`, the T/C (dose: 16.0 mg/kg/injection, schedule: Q01DX001 (ip), vehicle: water) was 166 % of control and the T/C (dose: 32.0 mg/kg/injection, schedule: Q01DX001 (ip), vehicle: water) was 240 % of control.
